{"source": "paper PMC9693223", "about": "(Molecules, 2022)", "target": "TcrNT2 (Trypanosoma cruzi, UniProt Q4DHG0)", "sequence (Q4DHG0 entry or part of it)": "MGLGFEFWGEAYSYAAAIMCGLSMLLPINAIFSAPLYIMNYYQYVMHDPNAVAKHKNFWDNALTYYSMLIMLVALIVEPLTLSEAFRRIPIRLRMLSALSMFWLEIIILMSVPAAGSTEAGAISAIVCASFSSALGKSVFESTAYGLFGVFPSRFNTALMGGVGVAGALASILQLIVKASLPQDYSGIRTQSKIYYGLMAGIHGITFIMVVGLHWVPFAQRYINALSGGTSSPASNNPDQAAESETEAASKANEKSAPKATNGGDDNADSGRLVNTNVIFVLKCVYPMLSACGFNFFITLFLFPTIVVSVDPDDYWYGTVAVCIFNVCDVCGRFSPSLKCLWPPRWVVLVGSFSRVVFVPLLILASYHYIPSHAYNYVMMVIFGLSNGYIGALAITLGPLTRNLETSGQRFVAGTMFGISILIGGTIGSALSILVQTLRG", "experiment": "Transport of [^3H]-thymidine by TcrNT2 expressed in L. mexicana Cas9^ΔNT1 (Km, inhibition)", "type": "cell-based", "procedure,_shortened": "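L. mexicana Cas9ΔNT1 expressing TcrNT2, 10^7 cells per point, incubated with [3H]-thymidine for a set time, stopped with ice-cold buffer containing excess unlabeled permeant and oil-spin separation. Km by Michaelis-Menten fit; IC50 by sigmoid fit converted to Ki via Cheng-Prusoff, with ΔG° = −RTln(Ki).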"}
{"smiles": "O=c1[nH]c(=O)n([C@H]2C[C@H](O)[C@@H](CO)O2)cc1F", "note": "[5-F-2′-dUrd, 5-F-2′-deoxyuridine]", "values": [{"measurement": "ΔG° (Gibbs free energy of interaction)", "setting": "calculated from Km or Ki at 25 °C", "result": -7.93, "unit": "kcal/mol"}, {"measurement": "δ(ΔG°) with respect to ΔG° of thymidine", "setting": "change in ΔG° relative to thymidine", "result": -1.03, "unit": "kcal/mol"}, {"measurement": "Ki", "setting": "read-out: Ki on the transport of [^3H]-thymidine by TcrNT2", "result": "1500 ± 120", "unit": "nM"}]}
